The source made the active and inactive calls. No cut-off for these calls is given here.
Columns and labels:
[1] = molecular target: Serine/threonine-protein kinase TBK1 (Homo sapiens) (UniProt Q9UHD2); assay: TBK1 Kinase panel; details: Compound concentration 1.0 uM
[2] = molecular target: Serine/threonine-protein kinase 4 (Homo sapiens) (UniProt Q13043); assay: MST1 Kinase panel; details: Compound concentration 1.0 uM
[3] = molecular target: Homeodomain-interacting protein kinase 1 (Homo sapiens) (UniProt Q86Z02); assay: HIPK1 Kinase panel; details: Compound concentration 1.0 uM
Chain of Homeodomain-interacting protein kinase 1 (Homo sapiens) (Q86Z02 whole entry, looked up): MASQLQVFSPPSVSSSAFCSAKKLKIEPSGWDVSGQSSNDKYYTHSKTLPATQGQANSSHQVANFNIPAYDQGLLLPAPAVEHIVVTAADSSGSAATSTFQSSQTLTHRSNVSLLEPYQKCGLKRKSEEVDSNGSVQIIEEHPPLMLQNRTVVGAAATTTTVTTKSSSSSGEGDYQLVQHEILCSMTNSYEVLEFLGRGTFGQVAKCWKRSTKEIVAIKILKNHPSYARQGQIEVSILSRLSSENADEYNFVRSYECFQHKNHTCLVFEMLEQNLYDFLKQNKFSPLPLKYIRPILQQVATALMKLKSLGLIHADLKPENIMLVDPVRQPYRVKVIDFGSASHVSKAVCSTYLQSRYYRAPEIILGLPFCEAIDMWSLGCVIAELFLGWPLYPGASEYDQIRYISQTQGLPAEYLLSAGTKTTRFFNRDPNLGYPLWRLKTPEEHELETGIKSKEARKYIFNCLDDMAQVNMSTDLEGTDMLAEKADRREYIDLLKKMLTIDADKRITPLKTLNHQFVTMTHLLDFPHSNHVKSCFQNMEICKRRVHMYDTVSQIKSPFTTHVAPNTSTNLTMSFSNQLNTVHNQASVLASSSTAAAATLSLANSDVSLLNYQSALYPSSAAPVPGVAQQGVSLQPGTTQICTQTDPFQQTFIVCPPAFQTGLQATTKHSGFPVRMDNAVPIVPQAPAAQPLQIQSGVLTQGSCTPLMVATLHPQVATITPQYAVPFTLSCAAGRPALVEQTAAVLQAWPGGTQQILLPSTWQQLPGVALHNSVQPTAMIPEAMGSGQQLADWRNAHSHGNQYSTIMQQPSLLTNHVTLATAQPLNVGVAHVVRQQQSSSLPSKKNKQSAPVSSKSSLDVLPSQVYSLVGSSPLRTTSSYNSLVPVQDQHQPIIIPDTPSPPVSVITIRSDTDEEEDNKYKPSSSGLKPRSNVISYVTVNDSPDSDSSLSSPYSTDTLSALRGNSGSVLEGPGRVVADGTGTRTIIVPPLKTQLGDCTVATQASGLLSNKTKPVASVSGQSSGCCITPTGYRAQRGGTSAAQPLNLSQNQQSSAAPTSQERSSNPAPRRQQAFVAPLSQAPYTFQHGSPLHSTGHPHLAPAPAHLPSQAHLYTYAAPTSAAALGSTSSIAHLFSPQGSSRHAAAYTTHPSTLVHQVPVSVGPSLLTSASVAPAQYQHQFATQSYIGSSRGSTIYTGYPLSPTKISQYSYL

[4] = molecular target: Tyrosine-protein kinase Blk (Homo sapiens) (UniProt P51451); assay: Blk Kinase panel; details: Compound concentration 1.0 uM
Chain of Tyrosine-protein kinase Blk (Homo sapiens) (P51451 2-505 limits assumed): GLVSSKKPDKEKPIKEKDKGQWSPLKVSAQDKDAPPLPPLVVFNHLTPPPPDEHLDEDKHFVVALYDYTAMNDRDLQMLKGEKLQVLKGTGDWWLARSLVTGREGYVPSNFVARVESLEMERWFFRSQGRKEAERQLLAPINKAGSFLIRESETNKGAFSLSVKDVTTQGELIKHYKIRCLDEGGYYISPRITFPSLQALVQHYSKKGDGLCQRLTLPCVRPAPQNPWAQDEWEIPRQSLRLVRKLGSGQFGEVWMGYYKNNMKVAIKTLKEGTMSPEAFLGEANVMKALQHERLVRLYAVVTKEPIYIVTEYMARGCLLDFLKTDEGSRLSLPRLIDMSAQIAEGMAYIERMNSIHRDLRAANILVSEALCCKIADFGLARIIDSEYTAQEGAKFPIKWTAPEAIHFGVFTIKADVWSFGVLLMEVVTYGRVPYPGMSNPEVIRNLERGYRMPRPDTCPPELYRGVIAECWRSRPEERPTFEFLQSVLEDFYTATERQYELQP

[5] = molecular target: Focal adhesion kinase 1 (Homo sapiens) (UniProt Q05397); assay: FAK Kinase panel; details: Compound concentration 1.0 uM
[6] = molecular target: Serine/threonine-protein kinase MRCK alpha (Homo sapiens) (UniProt Q5VT25); assay: MRCK_alpha Kinase panel; details: Compound concentration 1.0 uM
[7] = molecular target: Serine/threonine-protein kinase MARK1 (Homo sapiens) (UniProt Q9P0L2); assay: MARK1 Kinase panel; details: Compound concentration 1.0 uM
[8] = molecular target: 5'-AMP-activated protein kinase catalytic subunit alpha-1 (Homo sapiens) (UniProt Q13131); assay: PRKAA1 Kinase panel; details: Compound concentration 1.0 uM
[9] = molecular target: Serine/threonine-protein kinase NLK (Homo sapiens) (UniProt Q9UBE8); assay: NLK Kinase panel; details: Compound concentration 1.0 uM
[10] = molecular target: Mitogen-activated protein kinase kinase kinase kinase 4 (Homo sapiens, UniProt O95819); assay: MAP4K4 Kinase panel
[11] = molecular target: Tyrosine-protein kinase ITK/TSK (Homo sapiens) (UniProt Q08881); assay: ITK Kinase panel; details: Compound concentration 1.0 uM
Chain of Tyrosine-protein kinase ITK/TSK (Homo sapiens) (Q08881 whole entry): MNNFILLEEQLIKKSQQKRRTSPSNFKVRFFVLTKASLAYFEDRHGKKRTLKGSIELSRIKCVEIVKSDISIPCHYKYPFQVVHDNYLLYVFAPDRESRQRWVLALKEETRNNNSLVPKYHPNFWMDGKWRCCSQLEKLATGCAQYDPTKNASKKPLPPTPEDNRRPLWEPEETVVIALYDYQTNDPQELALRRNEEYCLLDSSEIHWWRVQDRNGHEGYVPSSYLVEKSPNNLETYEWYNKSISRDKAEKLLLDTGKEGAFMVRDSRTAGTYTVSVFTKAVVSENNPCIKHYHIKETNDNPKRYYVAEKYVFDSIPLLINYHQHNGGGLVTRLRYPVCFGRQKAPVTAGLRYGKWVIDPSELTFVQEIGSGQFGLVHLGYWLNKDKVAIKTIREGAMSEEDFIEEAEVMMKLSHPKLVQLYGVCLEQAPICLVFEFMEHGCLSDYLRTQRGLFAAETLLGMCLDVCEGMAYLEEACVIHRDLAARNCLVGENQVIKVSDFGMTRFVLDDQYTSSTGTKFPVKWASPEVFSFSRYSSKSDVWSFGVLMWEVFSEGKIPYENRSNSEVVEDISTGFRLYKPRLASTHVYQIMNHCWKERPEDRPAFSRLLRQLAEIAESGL

[12] = molecular target: Inhibitor of nuclear factor kappa-B kinase subunit alpha (Homo sapiens) (UniProt O15111); assay: IKK_alpha Kinase panel; details: Compound concentration 1.0 uM
[13] = molecular target: Mitogen-activated protein kinase kinase kinase 10 (Homo sapiens) (UniProt Q02779); assay: MLK2 Kinase panel; details: Compound concentration 1.0 uM
Chain of Mitogen-activated protein kinase kinase kinase 10 (Homo sapiens) (Q02779 whole entry, looked up): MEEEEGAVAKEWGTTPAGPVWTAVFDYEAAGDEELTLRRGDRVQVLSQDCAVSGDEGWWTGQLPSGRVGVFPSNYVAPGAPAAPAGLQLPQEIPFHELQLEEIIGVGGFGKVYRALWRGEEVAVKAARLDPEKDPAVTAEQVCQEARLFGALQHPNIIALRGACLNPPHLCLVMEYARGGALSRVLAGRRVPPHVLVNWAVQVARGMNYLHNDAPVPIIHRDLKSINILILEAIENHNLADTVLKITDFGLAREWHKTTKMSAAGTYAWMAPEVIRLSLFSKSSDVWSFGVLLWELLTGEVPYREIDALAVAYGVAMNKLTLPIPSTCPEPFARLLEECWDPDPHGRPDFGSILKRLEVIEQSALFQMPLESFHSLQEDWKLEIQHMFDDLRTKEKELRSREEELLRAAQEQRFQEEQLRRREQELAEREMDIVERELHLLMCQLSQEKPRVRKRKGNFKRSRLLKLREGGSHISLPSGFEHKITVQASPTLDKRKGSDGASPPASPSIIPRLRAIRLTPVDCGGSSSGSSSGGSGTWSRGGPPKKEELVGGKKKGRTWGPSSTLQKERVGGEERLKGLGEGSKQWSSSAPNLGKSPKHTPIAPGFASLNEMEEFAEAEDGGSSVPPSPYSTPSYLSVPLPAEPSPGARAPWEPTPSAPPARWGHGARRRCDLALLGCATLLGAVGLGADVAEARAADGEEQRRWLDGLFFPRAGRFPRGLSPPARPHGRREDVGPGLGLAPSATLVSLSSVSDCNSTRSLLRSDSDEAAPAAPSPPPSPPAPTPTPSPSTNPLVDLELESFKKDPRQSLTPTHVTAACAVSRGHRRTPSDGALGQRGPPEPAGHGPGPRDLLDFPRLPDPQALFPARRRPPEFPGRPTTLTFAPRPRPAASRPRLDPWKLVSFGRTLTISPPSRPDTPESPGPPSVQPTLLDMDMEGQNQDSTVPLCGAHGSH

[14] = molecular target: Angiopoietin-1 receptor (Homo sapiens) (UniProt Q02763); assay: Tie2 Kinase panel; details: Compound concentration 1.0 uM
[15] = molecular target: Tyrosine-protein kinase Lyn (Homo sapiens) (UniProt P07948); assay: Lyn Kinase panel; details: Compound concentration 1.0 uM
[16] = molecular target: Tyrosine-protein kinase CSK (Homo sapiens) (UniProt P41240); assay: CSK Kinase panel; details: Compound concentration 1.0 uM
Chain of Tyrosine-protein kinase CSK (Homo sapiens) (P41240 2-450 limits assumed): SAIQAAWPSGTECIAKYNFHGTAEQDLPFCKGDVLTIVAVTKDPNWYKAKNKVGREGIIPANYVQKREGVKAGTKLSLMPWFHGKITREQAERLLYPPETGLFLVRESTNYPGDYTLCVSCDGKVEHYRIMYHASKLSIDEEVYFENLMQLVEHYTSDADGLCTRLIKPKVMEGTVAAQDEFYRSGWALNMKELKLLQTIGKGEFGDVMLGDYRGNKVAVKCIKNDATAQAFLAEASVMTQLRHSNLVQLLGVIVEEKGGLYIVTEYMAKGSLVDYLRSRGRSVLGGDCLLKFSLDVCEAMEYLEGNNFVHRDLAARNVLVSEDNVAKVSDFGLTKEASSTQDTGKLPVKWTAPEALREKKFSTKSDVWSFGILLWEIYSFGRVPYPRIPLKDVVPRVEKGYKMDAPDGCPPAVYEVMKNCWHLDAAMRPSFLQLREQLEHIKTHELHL

[17] = molecular target: Serine/threonine-protein kinase Sgk2 (Homo sapiens) (UniProt Q9HBY8); assay: SGK2 Kinase panel; details: Compound concentration 1.0 uM
[18] = molecular target: Alpha-1B adrenergic receptor (Homo sapiens) (UniProt P35368); details: Compound concentration 10.0 uM
[19] = molecular target: Receptor-type tyrosine-protein kinase FLT3 (Homo sapiens) (UniProt P36888); assay: Flt3 Kinase panel; details: Compound concentration 1.0 uM
[20] = molecular target: Dual specificity tyrosine-phosphorylation-regulated kinase 4 (Homo sapiens) (UniProt Q9NR20); assay: DYRK4 Kinase panel; details: Compound concentration 1.0 uM
[21] = molecular target: Insulin receptor-related protein (Homo sapiens) (UniProt P14616); assay: IRR Kinase panel; details: Compound concentration 1.0 uM
[22] = molecular target: Dual specificity tyrosine-phosphorylation-regulated kinase 1A (Homo sapiens) (UniProt Q13627); assay: DYRK1A Kinase panel; details: Compound concentration 1.0 uM
[23] = molecular target: Serine/threonine-protein kinase Nek9 (Homo sapiens) (UniProt Q8TD19); assay: NEK9 Kinase panel; details: Compound concentration 1.0 uM
[24] = molecular target: Ribosomal protein S6 kinase alpha-2 (Homo sapiens) (UniProt Q15349); assay: RSK3 Kinase panel; details: Compound concentration 1.0 uM
[25] = molecular target: Serine/threonine-protein kinase DCLK2 (Homo sapiens) (UniProt Q8N568); assay: DCAMKL2 Kinase panel; details: Compound concentration 1.0 uM
[26] = molecular target: cAMP-dependent protein kinase catalytic subunit PRKX (Homo sapiens) (UniProt P51817); assay: PrKX Kinase panel; details: Compound concentration 1.0 uM
[27] = molecular target: Mitogen-activated protein kinase kinase kinase 9 (Homo sapiens) (UniProt P80192); assay: MLK1 Kinase panel; details: Compound concentration 1.0 uM
[28] = molecular target: Serine/threonine-protein kinase PAK 1 (Homo sapiens) (UniProt Q13153); assay: PAK1 Kinase panel; details: Compound concentration 1.0 uM
[29] = molecular target: GABA-A receptor; anion channel (Rattus norvegicus) (UniProt O09028+P15431+P18506+P18508+P19969+P20236+P23574+P23576+P28471+P28473+P30191+P62813+P63079+P63138+Q91ZM7+Q9ES14); details: Compound concentration 10.0 uM
[30] = molecular target: Ephrin type-A receptor 8 (Homo sapiens) (UniProt P29322); assay: EphA8 Kinase panel; details: Compound concentration 1.0 uM
[31] = molecular target: Dual specificity mitogen-activated protein kinase kinase 3 (Homo sapiens) (UniProt P46734); assay: MEK3 Kinase panel; details: Compound concentration 1.0 uM
[32] = molecular target: 5-hydroxytryptamine receptor 1E (Homo sapiens) (UniProt P28566); details: Compound concentration 10.0 uM
[33] = molecular target: Serine/threonine-protein kinase Chk2 (Homo sapiens) (UniProt O96017); assay: CHK2 Kinase panel; details: Compound concentration 1.0 uM
[34] = molecular target: Mitogen-activated protein kinase 12 (Homo sapiens) (UniProt P53778); assay: p38_gamma Kinase panel; details: Compound concentration 1.0 uM
[35] = molecular target: Tyrosine-protein kinase JAK3 (Homo sapiens) (UniProt P52333); assay: JAK3 Kinase panel; details: Compound concentration 1.0 uM
Chain of Tyrosine-protein kinase JAK3 (Homo sapiens) (P52333 whole entry): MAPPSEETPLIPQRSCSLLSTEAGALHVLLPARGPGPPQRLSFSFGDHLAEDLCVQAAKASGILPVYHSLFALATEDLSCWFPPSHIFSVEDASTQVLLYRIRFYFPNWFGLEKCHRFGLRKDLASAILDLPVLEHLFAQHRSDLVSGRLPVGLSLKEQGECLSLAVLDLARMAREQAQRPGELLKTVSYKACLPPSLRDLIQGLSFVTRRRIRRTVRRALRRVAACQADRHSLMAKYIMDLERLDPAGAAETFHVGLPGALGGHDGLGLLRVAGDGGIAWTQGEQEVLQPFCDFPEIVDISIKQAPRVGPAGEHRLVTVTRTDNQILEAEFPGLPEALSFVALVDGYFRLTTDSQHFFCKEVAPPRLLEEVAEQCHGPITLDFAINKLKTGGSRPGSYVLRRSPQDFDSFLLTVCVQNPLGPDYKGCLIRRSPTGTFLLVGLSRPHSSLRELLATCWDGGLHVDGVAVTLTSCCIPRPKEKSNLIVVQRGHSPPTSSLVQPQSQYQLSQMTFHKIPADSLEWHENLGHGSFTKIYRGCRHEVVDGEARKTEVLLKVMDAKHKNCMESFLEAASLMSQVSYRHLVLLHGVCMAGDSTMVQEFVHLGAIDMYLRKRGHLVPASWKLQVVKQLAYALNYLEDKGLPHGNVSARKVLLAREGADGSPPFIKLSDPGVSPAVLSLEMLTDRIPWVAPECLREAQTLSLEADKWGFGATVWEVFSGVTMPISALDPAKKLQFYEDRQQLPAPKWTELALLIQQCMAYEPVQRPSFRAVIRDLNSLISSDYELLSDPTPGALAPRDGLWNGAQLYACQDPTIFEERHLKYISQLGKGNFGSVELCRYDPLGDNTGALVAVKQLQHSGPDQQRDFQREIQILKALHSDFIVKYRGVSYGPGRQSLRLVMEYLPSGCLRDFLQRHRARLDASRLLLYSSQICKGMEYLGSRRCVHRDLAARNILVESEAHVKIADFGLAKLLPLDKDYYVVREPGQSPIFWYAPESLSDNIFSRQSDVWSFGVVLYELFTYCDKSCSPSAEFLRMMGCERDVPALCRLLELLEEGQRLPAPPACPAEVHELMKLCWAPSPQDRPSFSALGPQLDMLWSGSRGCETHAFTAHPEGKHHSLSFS

[36] = molecular target: Serine/threonine-protein kinase PLK2 (Homo sapiens) (UniProt Q9NYY3); assay: PLK2 Kinase panel; details: Compound concentration 1.0 uM
[37] = molecular target: Sigma intracellular receptor 2 (Homo sapiens) (UniProt Q5BJF2); details: Compound concentration 10.0 uM
Chain of Sigma intracellular receptor 2 (Homo sapiens) (Q5BJF2 whole entry): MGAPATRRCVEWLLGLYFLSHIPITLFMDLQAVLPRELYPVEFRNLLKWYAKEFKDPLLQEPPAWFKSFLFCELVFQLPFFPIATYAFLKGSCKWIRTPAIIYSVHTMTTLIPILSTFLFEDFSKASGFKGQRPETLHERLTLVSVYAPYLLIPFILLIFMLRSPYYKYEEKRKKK

[38] = molecular target: RAC-alpha serine/threonine-protein kinase (Homo sapiens) (UniProt P31749); assay: AKT1 Kinase panel; details: Compound concentration 1.0 uM
[39] = molecular target: Calcium/calmodulin-dependent protein kinase type 1 (Homo sapiens) (UniProt Q14012); assay: CaMKI Kinase panel; details: Compound concentration 1.0 uM
[40] = (§1) TAK1-TAB1 Kinase panel; set-up: species or system Homo sapiens
Homo sapiens = species on record: Homo sapiens; assay: as §1; details: Compound concentration 1.0 uM
[41] = molecular target: Histamine H2 receptor (Homo sapiens) (UniProt P25021); details: Compound concentration 10.0 uM
[42] = molecular target: Calcium/calmodulin-dependent protein kinase type II subunit beta (Homo sapiens) (UniProt Q13554); assay: CaMKII_beta Kinase panel; details: Compound concentration 1.0 uM
[43] = molecular target: Tyrosine-protein kinase SYK (Homo sapiens) (UniProt P43405); assay: Syk Kinase panel; details: Compound concentration 1.0 uM
[44] = molecular target: Tyrosine-protein kinase receptor UFO (Homo sapiens) (UniProt P30530); assay: Axl Kinase panel; details: Compound concentration 1.0 uM
[45] = molecular target: Tyrosine-protein kinase Mer (Homo sapiens) (UniProt Q12866); assay: Mer Kinase panel; details: Compound concentration 1.0 uM
[46] = molecular target: Alpha-2B adrenergic receptor (Homo sapiens) (UniProt P18089); details: Compound concentration 10.0 uM
[47] = molecular target: cGMP-dependent protein kinase 1 (Homo sapiens) (UniProt Q13976); assay: PKG1_alpha Kinase panel; details: Compound concentration 1.0 uM
[48] = molecular target: Casein kinase II subunit alpha (Homo sapiens) (UniProt P68400); assay: CK2_alpha1 Kinase panel; details: Compound concentration 1.0 uM
[49] = molecular target: PAS domain-containing serine/threonine-protein kinase (Homo sapiens) (UniProt Q96RG2); assay: PASK Kinase panel; details: Compound concentration 1.0 uM
[50] = molecular target: Proto-oncogene tyrosine-protein kinase ROS (Homo sapiens) (UniProt P08922); assay: Ros Kinase panel; details: Compound concentration 1.0 uM
[51] = R848-induced IL-6 production in human whole blood; format: tissue-based
[52] = molecular target: 5-hydroxytryptamine receptor 1A (Homo sapiens) (UniProt P08908); details: Compound concentration 10.0 uM

CC(C)(O)[C@H](F)CN1Cc2cc(NC(=O)c3cnn4cccnc34)c(N3CCOCC3)cc2C1=O
inhibition [1]: 5.5% | inhibition [2]: -1% | inhibition [3]: -0% | inhibition [4]: 37.5% | inhibition [5]: 19.5% | inhibition [6]: 1.5% | inhibition [7]: -1% | inhibition [8]: 5.5% | inhibition [9]: 7% | IC50 [10]: 680 nM | inhibition ([10]; Compound concentration 1.0 uM): 86.3% | inhibition [11]: 21% | inhibition [12]: 8.5% | inhibition [13]: 7.5% | inhibition [14]: 6.5% | inhibition [15]: 55.3% | inhibition [16]: 22% | inhibition [17]: 5.5% | inhibition [18]: -5.24% | inhibition [19]: 90.8% | inhibition [20]: -5% | inhibition [21]: 18% | inhibition [22]: 2% | inhibition [23]: -2.5% | inhibition [24]: 9% | inhibition [25]: 0.5% | inhibition [26]: -2.5% | inhibition [27]: 14% | inhibition [28]: 9% | inhibition [29]: 18.5% | inhibition [30]: 13% | inhibition [31]: 12% | inhibition [32]: 1.48% | inhibition [33]: 13% | inhibition [34]: 0.5% | inhibition [35]: 28% | inhibition [36]: -3.5% | inhibition [37]: -0.93% | inhibition [38]: 0.5% | inhibition [39]: -5.5% | IC50 [40]: 966 nM | inhibition (Homo sapiens): 74.5% | inhibition [41]: -2.71% | inhibition [42]: -5.5% | inhibition [43]: 9% | inhibition [44]: 17% | inhibition [45]: 28% | inhibition [46]: -0.98% | inhibition [47]: 1% | inhibition [48]: 3.5% | inhibition [49]: -6.5% | inhibition [50]: 38.5% | IC50 [51]: 190 nM (active) | inhibition [52]: -2.64%

Reference: ChEMBL document CHEMBL4879554, “Data for DCP probe GNE-2256” (2021)
